# Experimental data as given in patent US20080286201A1, “Caspase-3 Substrate Comprising Imaging Agents” (priority 2005, published 2008).
# Square brackets hold non-standard residues; d marks the D form. Peptide text beside a SMILES is read from it. Tyr(3-I) = N[C@@H](Cc1ccc(O)c(I)c1)C(=O)O; Orn = NCCC[C@H](N)C(=O)O
# How the values were obtained:
# caspase-3 = biological target: T1, caspase-3 (Homo sapiens, UniProt P42574); assay: Caspase-3 assay kit (BIOMOL QuantiZyme Assay System), potency (Ki) of caspase-3 test substrates; type: biochemical
# T1 construct: purchased BIOMOL
# T1 sequence (P42574 29-175 limits assumed): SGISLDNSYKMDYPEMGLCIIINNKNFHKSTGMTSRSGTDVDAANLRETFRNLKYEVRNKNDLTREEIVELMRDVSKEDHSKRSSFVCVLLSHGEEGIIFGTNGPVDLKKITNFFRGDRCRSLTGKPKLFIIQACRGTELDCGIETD
# T1 sequence (P42574 176-277 limits assumed): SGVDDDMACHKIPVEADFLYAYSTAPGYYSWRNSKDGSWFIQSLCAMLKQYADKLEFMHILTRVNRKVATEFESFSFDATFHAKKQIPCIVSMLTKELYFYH
# Description: Potency (Ki) of the caspase-3 test substrates was evaluated using a commercially available caspase-3 assay kit (BIOMOL QuantiZyme™ Assay System, CASPASE-3 Assay Kit for Drug Discovery). The DEVD substrate sequence was bio-modified with the additional of both tyrosine residues for radiolabelling and leader sequence to aid cell penetration. In vitro potency was maintained following both of these bio-modifications.
# [1] = tested on: phosphatidylserine (PS) on the outer membrane of apoptotic cells; details: read-out: affinity of binding to phosphatidylserine; cited from earlier work
Compound,Ki (caspase-3) [µM],Kd [1] [µM]
"CC(=O)N[C@@H](CC(=O)O)C(=O)N[C@@H](CCC(=O)O)C(=O)N[C@H](C(=O)N[C@@H](CC(=O)O)C(=O)Nc1ccc2c(C)cc(=O)oc2c1)C(C)C [Ac-Asp-Glu-Val-Asp-AMC, reference compound]",7.74,
Annexin-5: endogenous human protein (RMM 36 kDa) which binds to phosphatidylserine on apoptotic cells,,~0.001
CC(=O)N[C@@H](CCCNC(=N)N)C(=O)N[C@@H](CCCCN)C(=O)N[C@@H](CCCCN)C(=O)N[C@@H](CCCNC(=N)N)C(=O)N[C@@H](CCCNC(=N)N)C(=O)N[C@@H](CCCN)C(=O)N[C@@H](CCCNC(=N)N)C(=O)N[C@@H](CCCNC(=N)N)C(=O)N[C@@H](CCCNC(=N)N)C(=O)NCC(=O)N[C@@H](CC(=O)O)C(=O)N[C@@H](CCC(=O)O)C(=O)N[C@H](C(=O)N[C@@H](CC(=O)O)C(=O)NCC(=O)N[C@@H](CCCCN)C(=O)N[C@@H](CCCCN)C(=O)N[C@@H](Cc1ccc(O)c(I)c1)C(N)=O)C(C)C [Compound 22] (Ac-RKKRR[Orn]RRRGDEVDGKK[Tyr(3-I)]-NH2),9.24,
CC(=O)N[C@@H](CC(=O)O)C(=O)N[C@@H](CCC(=O)O)C(=O)N[C@H](C(=O)N[C@@H](CC(=O)O)C(=O)NCC(=O)N[C@@H](Cc1ccc(O)c(I)c1)C(N)=O)C(C)C [Compound 2] (Ac-DEVDG[Tyr(3-I)]-NH2),7.83,
